Test results taken from patent US12473304B2, “Heterocyclic PAD4 inhibitors” (BRISTOL-MYERS SQUIBB COMPANY, priority 2020, dated 2025).

molecular target: human PAD4 (hPAD4) (Homo sapiens (Human), UniProt Q9UM07); assay: RFMS Human PAD4 Functional Assay 1; format: biochemical; conditions: RFMS assay 1; 5 nM hPAD4, 250 μM BAEE substrate, 50 μM calcium, 37° C.
How it was run: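 Recombinant hPAD4 (5 nM) was preincubated with compound (top 50 μM, 0.5% DMSO) for 30 min at 37 °C, then reacted with 250 μM BAEE for 90 min at 37 °C in pH 7.5 HEPES buffer with 50 μM calcium and 5 μM TPEN. Product was derivatized with phenyl glyoxal and quantified by RapidFire MS.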

human PAD4 (hPAD4), sequence (Q9UM07 whole entry): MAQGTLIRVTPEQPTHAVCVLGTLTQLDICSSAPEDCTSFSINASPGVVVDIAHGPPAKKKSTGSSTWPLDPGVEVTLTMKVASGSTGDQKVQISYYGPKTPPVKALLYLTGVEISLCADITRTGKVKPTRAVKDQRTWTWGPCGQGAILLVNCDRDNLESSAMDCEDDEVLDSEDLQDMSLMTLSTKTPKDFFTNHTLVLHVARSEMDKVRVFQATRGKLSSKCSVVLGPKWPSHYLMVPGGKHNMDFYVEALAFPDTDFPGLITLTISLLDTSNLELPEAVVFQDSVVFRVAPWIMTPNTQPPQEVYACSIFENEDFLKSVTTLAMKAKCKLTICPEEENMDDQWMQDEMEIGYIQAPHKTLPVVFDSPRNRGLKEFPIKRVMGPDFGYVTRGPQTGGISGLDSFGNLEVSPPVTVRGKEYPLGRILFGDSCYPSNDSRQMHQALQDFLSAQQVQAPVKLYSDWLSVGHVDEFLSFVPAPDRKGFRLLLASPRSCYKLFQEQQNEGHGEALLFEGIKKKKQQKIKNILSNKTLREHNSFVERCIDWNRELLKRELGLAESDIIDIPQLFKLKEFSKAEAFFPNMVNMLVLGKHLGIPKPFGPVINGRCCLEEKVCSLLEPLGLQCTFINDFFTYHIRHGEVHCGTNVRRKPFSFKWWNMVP

Row | IC50 [nM] | Structure (SMILES)
1 | 490 | COc1cc(C(=O)N2C[C@H](N)C[C@@H](F)C2)cn2nc(-c3cc4ccc(-c5cccc(CO)c5)cc4n3CC3CC3)c(C)c12 [Example 210, [3-(2-{6-[(3R,5R)-3-Amino-5-fluoropiperidine-1-carbonyl]-4-methoxy-3-methylpyrazolo[1,5-a]pyridin-2-yl}-1-(cyclopropylmethyl)-1H-indol-6-yl)phenyl]methanol]
2 | 1050 | COc1cc(C(=O)N2C[C@H](N)C[C@@H](F)C2)cn2nc(-c3cc4ccc(-c5cccc(CNS(C)(=O)=O)c5)cc4n3CC3CC3)c(C)c12 [Example 211, N-{[3-(2-{6-[(3R,5R)-3-Amino-5-fluoropiperidine-1-carbonyl]-4-methoxy-3-methylpyrazolo[1,5-a]pyridin-2-yl}-1-(cyclopropylmethyl)-1H-indol-6-yl)phenyl]methyl}methanesulfonamide]
3 | 1690 | COc1cccc(-c2ccc3cc(-c4nn5cc(C(=O)N6C[C@H](N)C[C@@H](F)C6)cc(OC)c5c4C)n(CC4CC4)c3c2)c1 [Example 212, (3R,5R)-1-{2-[1-(Cyclopropylmethyl)-6-(3-methoxyphenyl)-1H-indol-2-yl]-4-methoxy-3-methylpyrazolo[1,5-a]pyridine-6-carbonyl}-5-fluoropiperidin-3-amine]
4 | 680 | COc1cc(C(=O)N2C[C@H](N)C[C@@H](F)C2)cn2nc(-c3cc4ccc(-c5cccc(NS(C)(=O)=O)c5)cc4n3CC3CC3)c(C)c12 [Example 213, N-[3-(2-{6-[(3R,5R)-3-Amino-5-fluoropiperidine-1-carbonyl]-4-methoxy-3-methylpyrazolo[1,5-a]pyridin-2-yl}-1-(cyclopropylmethyl)-1H-indol-6-yl)phenyl]methanesulfonamide]
5 | 150 | COc1cc(C(=O)N2C[C@H](N)C[C@@H](F)C2)cn2nc(-c3cc4ccc(-c5ccc(NC(C)=O)cc5)cc4n3CC3CC3)c(C)c12 [Example 214, N-[4-(2-{6-[(3R,5R)-3-Amino-5-fluoropiperidine-1-carbonyl]-4-methoxy-3-methylpyrazolo[1,5-a]pyridin-2-yl}-1-(cyclopropylmethyl)-1H-indol-6-yl)phenyl]acetamide]
6 | 610 | COc1cc(C(=O)N2C[C@H](N)C[C@@H](F)C2)cn2nc(-c3cc4ccc(-c5cccc(CNC(C)=O)c5)cc4n3CC3CC3)c(C)c12 [Example 215, N-{[3-(2-{6-[(3R,5R)-3-Amino-5-fluoropiperidine-1-carbonyl]-4-methoxy-3-methylpyrazolo[1,5-a]pyridin-2-yl}-1-(cyclopropylmethyl)-1H-indol-6-yl)phenyl]methyl}acetamide]
7 | 270 | COc1cc(C(=O)N2C[C@H](N)C[C@@H](F)C2)cn2nc(-c3cc4ccc(-c5ccc(NS(C)(=O)=O)cc5)cc4n3CC3CC3)c(C)c12 [Example 216, N-[4-(2-{6-[(3R,5R)-3-Amino-5-fluoropiperidine-1-carbonyl]-4-methoxy-3-methylpyrazolo[1,5-a]pyridin-2-yl}-1-(cyclopropylmethyl)-1H-indol-6-yl)phenyl]methanesulfonamide]
8 | 260 | COc1cc(C(=O)N2C[C@H](N)C[C@@H](F)C2)cn2nc(-c3cc4ccc(-c5ccc(C(=O)N(C)C)cc5)cc4n3CC3CC3)c(C)c12 [Example 217, 4-(2-{6-[(3R,5R)-3-Amino-5-fluoropiperidine-1-carbonyl]-4-methoxy-3-methylpyrazolo[1,5-a]pyridin-2-yl}-1-(cyclopropylmethyl)-1H-indol-6-yl)-N,N-dimethylbenzamide]
9 | 550 | COc1cc(C(=O)N2C[C@H](N)C[C@@H](F)C2)cn2nc(-c3cc4ccc(-c5ccc6[nH]ncc6c5)cc4n3CC3CC3)c(C)c12 [Example 218, (3R,5R)-1-{2-[1-(Cyclopropylmethyl)-6-(1H-indazol-5-yl)-1H-indol-2-yl]-4-methoxy-3-methylpyrazolo[1,5-a]pyridine-6-carbonyl}-5-fluoropiperidin-3-amine]
10 | 460 | COc1cc(C(=O)N2C[C@H](N)C[C@@H](F)C2)cn2nc(-c3cc4ccc(-c5ccc6c(cnn6C)c5)cc4n3CC3CC3)c(C)c12 [Example 219, (3R,5R)-1-{2-[1-(Cyclopropylmethyl)-6-(1-methyl-1H-indazol-5-yl)-1H-indol-2-yl]-4-methoxy-3-methylpyrazolo[1,5-a]pyridine-6-carbonyl}-5-fluoropiperidin-3-amine]
11 | 4340 | COc1cc(C(=O)N2C[C@H](N)C[C@@H](F)C2)cn2nc(-c3cc4ccc(-c5cccc(-c6nn[nH]n6)c5)cc4n3CC3CC3)c(C)c12 [Example 220, (3R,5R)-1-{2-[1-(Cyclopropylmethyl)-6-[3-(2H-1,2,3,4-tetrazol-5-yl)phenyl]-1H-indol-2-yl]-4-methoxy-3-methylpyrazolo[1,5-a]pyridine-6-carbonyl}-5-fluoropiperidin-3-amine]
12 | 510 | COc1cc(C(=O)N2C[C@H](N)C[C@@H](F)C2)cn2nc(-c3cc4ccc(-c5ccc(CNC(C)=O)cc5)cc4n3CC3CC3)c(C)c12 [Example 221, N-{[4-(2-{6-[(3R,5R)-3-Amino-5-fluoropiperidine-1-carbonyl]-4-methoxy-3-methylpyrazolo[1,5-a]pyridin-2-yl}-1-(cyclopropylmethyl)-1H-indol-6-yl)phenyl]methyl}acetamide]
13 | 1010 | COc1cc(C(=O)N2C[C@H](N)C[C@@H](F)C2)cn2nc(-c3cc4ccc(-c5cccc6[nH]ncc56)cc4n3CC3CC3)c(C)c12 [Example 222, (3R,5R)-1-{2-[1-(Cyclopropylmethyl)-6-(1H-indazol-4-yl)-1H-indol-2-yl]-4-methoxy-3-methylpyrazolo[1,5-a]pyridine-6-carbonyl}-5-fluoropiperidin-3-amine]
14 | 130 | COc1cc(C(=O)N2C[C@H](N)C[C@@H](F)C2)cn2nc(-c3cc4ccc(-c5ccccc5C(N)=O)cc4n3CC3CC3)c(C)c12 [Example 223, 2-(2-{6-[(3R,5R)-3-Amino-5-fluoropiperidine-1-carbonyl]-4-methoxy-3-methylpyrazolo[1,5-a]pyridin-2-yl}-1-(cyclopropylmethyl)-1H-indol-6-yl)benzamide]
15 | 1070 | COc1cc(C(=O)N2C[C@H](N)C[C@@H](F)C2)cn2nc(-c3cc4ccc(-c5ccc(CNS(C)(=O)=O)cc5)cc4n3CC3CC3)c(C)c12 [Example 224, N-{[4-(2-{6-[(3R,5R)-3-Amino-5-fluoropiperidine-1-carbonyl]-4-methoxy-3-methylpyrazolo[1,5-a]pyridin-2-yl}-1-(cyclopropylmethyl)-1H-indol-6-yl)phenyl]methyl}methanesulfonamide]
16 | 80 | COc1cc(C(=O)N2C[C@H](N)C[C@@H](F)C2)cn2nc(-c3cc4ccc(-c5cc(F)c6[nH]c(=O)ccc6c5C)cc4n3CC3CC3)c(C)c12 [Example 225, 6-(2-{6-[(3R,5R)-3-Amino-5-fluoropiperidine-1-carbonyl]-4-methoxy-3-methylpyrazolo[1,5-a]pyridin-2-yl}-1-(cyclopropylmethyl)-1H-indol-6-yl)-8-fluoro-5-methyl-1,2-dihydroquinolin-2-one]
17 | 50 | COc1cc(C(=O)N2C[C@H](N)C[C@@H](F)C2)cn2nc(-c3cc4ccc(-c5ccc(NC(C)=O)nc5)cc4n3CC3CC3)c(C)c12 [Example 226, N-[5-(2-{6-[(3R,5R)-3-Amino-5-fluoropiperidine-1-carbonyl]-4-methoxy-3-methylpyrazolo[1,5-a]pyridin-2-yl}-1-(cyclopropylmethyl)-1H-indol-6-yl)pyridin-2-yl]acetamide]
